Numbers after ± are expanded uncertainties.
Details: 298.15 K, 101.33 kPa, Liquid; for viscosity: Capillary tube (Ostwald / Ubbelohde) method; for speed of sound: Sing-around technique in a fixed-path interferometer; for mass density: Vibrating tube method

Row | SMILES | viscosity [mPa·s] | speed of sound [m/s] | mass density [kg/m3]
1 | CCCCOCCO [2-butoxyethan-1-ol] | 2.885 ± 0.063 | 1306 ± 1.6 | 896.312 ± 0.24
2 | CCCCCCCCCCO [decan-1-ol] | 11.81 ± 0.28 | 1379.4 ± 1.6 | 826.489 ± 0.24
3 | CCCCCCCCO [octan-1-ol] | 7.68 ± 0.17 | 1347.3 ± 1.6 | 821.877 ± 0.24
4 | CCCCCCO [hexan-1-ol] | 4.623 ± 0.1 | 1303.5 ± 1.6 | 815.652 ± 0.24

Reference: the NIST ThermoML archive (doi:10.1016/j.jct.2013.04.021)
